{"source": "paper PMC11862611", "about": "(RSC Medicinal Chemistry, 2025)", "key": {"[1]": {"test_system": "panel of neurotransmitter receptors", "test": "radioligand displacement assay, whole panel", "assay_type": "binding, human", "procedure": "(§1) 4.2.3.6. Radioligand Binding Assay (Supplemental Figure S3)\n(§2) These assays were run by Eurofins under contract to LifeArc FR095-0011887. A representative protocol describing the human histamine H2 receptor (antagonist radioligand) assay is shown below.12 Cell membrane homogenates (24 µg protein) are incubated for 120 min at 22°C with 0.075 nM [125I]APT in the absence or presence of the test compound in a buffer containing 50 mM Na2HPO4/KH2PO4 (pH […]\n(§3) 7.4) and 0.05% BSA. […] Following"}, "[2]": {"test_system": "L. amazonensis promastigotes", "test": "anti-promastigote assay, L. amazonensis (resazurin)", "assay_type": "cell-based", "conditions": "Leishmania amazonensis; promastigote parasites (Table 1); read-out: L.amaz EC50", "procedure": "4.2.3.1. Anti-promastigote assays […]\nProtocol 1: L. amazonensis promastigotes in Medium 199 (100 μL at 5 × 105 mL−1) were incubated in 96-well plates with compounds in triplicate (amphotericin B was used as a positive control, and untreated parasites with DMSO as a negative control) at 26 °C for 72 h. Resazurin Solution (10 μL) was then added and the plate incubated at 26 °C for 4 h prior to measurement using a fluorescence plate reader (555 - 585 nm). EC50 values were calculated using sigmoidal regression analysis (GraphPad Prism).\nProtocol 2: Same procedure as above with the modification of a 48 h incubation time as opposed to 72 h and Leishmania amazonensis (MHOM/Br/75/JOSEFA) in Schneider’s insect medium in the place of Leishmania amazonensis (MHOM/Br/75/JOSEFA) in Medium 199. […]\nwell-1 in a 24-well plate with round cover slips and incubated for 24 h at 37 °C and 5% CO2. […]"}, "[3]": {"test_system": "L. major ΔLCB2 promastigotes", "assay_type": "cell-based, Leishmania major", "conditions": "EC50 WT versus ΔLCB2 L. major promastigotes", "quoted_text": "L. major promastigotes (FV1) WT, PX and Δ LCB2 in Schneider’s insect medium (100 μL at 1 × 106 mL−1) were incubated in 96-well plates with compounds in triplicate (amphotericin B and cycloheximide were used as positive controls, and untreated parasites with 1% DMSO as a negative control) at 26 °C for 48 h."}, "[4]": {"target": "T1, M1 (h) (antagonist radioligand) (Homo sapiens, UniProt P11229)", "T1 construct": "purchased Eurofins (contract assay); host or cells: cell membrane homogenates", "T1 sequence (P11229 1-460)": "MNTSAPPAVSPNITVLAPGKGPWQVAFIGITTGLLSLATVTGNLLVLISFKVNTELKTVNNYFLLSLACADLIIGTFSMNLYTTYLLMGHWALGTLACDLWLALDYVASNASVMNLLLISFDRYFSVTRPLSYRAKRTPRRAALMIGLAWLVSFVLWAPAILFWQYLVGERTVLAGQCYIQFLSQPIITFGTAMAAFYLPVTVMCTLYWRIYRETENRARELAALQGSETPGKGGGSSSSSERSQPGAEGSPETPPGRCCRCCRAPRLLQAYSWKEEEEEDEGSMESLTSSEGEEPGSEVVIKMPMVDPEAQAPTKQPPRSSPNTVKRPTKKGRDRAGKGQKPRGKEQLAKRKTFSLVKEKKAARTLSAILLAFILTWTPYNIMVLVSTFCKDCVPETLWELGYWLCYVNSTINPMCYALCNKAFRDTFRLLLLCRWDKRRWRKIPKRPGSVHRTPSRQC", "test": "radioligand displacement assay, M1", "assay_type": "binding", "procedure": "as §1, §2, §3"}, "[5]": {"target": "T2, M5 (h) (antagonist radioligand) (Homo sapiens, UniProt P08912)", "T2 construct": "purchased Eurofins (contract assay); host or cells: cell membrane homogenates", "T2 sequence (P08912 1-532)": "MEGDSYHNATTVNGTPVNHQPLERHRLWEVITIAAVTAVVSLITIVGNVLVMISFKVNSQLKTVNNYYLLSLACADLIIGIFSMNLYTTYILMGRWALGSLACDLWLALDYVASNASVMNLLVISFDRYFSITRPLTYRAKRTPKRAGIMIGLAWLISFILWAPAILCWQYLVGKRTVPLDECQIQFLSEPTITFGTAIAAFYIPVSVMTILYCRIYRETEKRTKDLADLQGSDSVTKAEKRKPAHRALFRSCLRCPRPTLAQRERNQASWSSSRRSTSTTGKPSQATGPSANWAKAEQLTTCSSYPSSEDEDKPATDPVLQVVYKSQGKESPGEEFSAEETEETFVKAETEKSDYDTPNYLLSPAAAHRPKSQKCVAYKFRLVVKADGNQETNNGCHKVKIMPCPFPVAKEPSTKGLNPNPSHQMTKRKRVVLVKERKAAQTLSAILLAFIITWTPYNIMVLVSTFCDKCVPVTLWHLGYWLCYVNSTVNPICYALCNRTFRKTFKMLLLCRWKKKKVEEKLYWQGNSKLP", "test": "radioligand displacement assay, M5", "assay_type": "binding", "procedure": "as §1, §2, §3"}}, "data": [{"smiles": "C[C@H]1CCCN1CCCO[C@H](c1ccccc1)c1ccc(Cl)cc1", "note": "[38l]", "values": [{"measurement": "binding profile across receptor panel", "setting": "[1]", "value": "greater selectivity"}, {"measurement": "EC50", "setting": "[2]", "value": 0.041, "unit": "µM"}, {"measurement": "times more active against WT than mutant ΔLCB2 promastigotes", "setting": "[3]", "value": "approximately 3 times"}, {"measurement": "effective binding, radioligand displacement, M1", "setting": "[4]", "value": "> 40", "unit": "%"}, {"measurement": "affinity, radioligand displacement, M5", "setting": "[5]", "value": "lower affinity"}]}]}
